Converted amounts (≈) assume the structure as drawn. Like-named read-outs stand apart in the source and are kept apart here.
How the values were obtained:
Assay type in all cases: cell-based
HCT-15 = assay: NCI cell line panel; conditions: Homo sapiens, Colon Cancer, read-out: Log10 GI50 (converted)
Description: (§1) Only two hundred years ago, many diseases ravaged humankind. Many of these diseases now have been controlled or eradicated. In the development of the means to treat or control these diseases, work with the appropriate common experimental animals was of critical importance. With the various types of cancers, and with the HIV virus, such work is presently ongoing. The research for the treatment of various types of cancer is coordinated in the United States by the National Cancer Institute (NCI). NCI, as a government entity, has been charged with assisting anti-cancer research. To establish whether a substance has anti-cancer activity, NCI has established a variety of protocols, one of which involves testing the candidate substance against a cell line panel containing 60 human tumor cell lines. This protocol has been verified and is generally accepted throughout the scientific community. This protocol and the established statistical means of evaluating the results obtained therefrom have been fully described in the literature. See Principles & Practice of Oncology PPO Updates, Volume 3, Number 10, October 1989, by Michael R. Boyd, M.D., Ph.D., for an in depth description of the test protocol. The statistical analysis is explained in "Display and Analysis of Patterns of Differential Activity of Drugs Against Human Tumor Cell Lines: Development of Means Graph and COMPARE Algorithm" Journal of the National Cancer Institute Reports Vol. 81, No. 14, Pg. 1088, Jul. 14, 1989, by K. D. Paull et al. Both of these references are incorporated herein by this reference thereto. The effectiveness and validity of the NCI in vitro protocol continues to be verified.

OVCAR-3 = assay: NCI cell line panel; conditions: Homo sapiens, Ovarian Cancer, read-out: Log10 GI50 (converted)
Description: as §1

LOX IMVI = assay: NCI cell line panel; conditions: Homo sapiens, Melanoma
Description: as §1

SK-OV-3 = assay: NCI cell line panel; conditions: Homo sapiens
Description: as §1

SF-539 = assay: NCI cell line panel; conditions: Homo sapiens, CNS Cancer, read-out: Log10 GI50 (converted)
Description: as §1

A498 = assay: NCI cell line panel; conditions: Homo sapiens; for GI50: A498, Renal Cancer, read-out: Log10 GI50 (converted)
Description: as §1

MCF7 = assay: NCI cell line panel; conditions: Homo sapiens, Breast Cancer; for IC (TGI): read-out: Log10 TGI (converted)
Description: as §1

NCI-H322M = assay: NCI cell line panel; conditions: Homo sapiens, Non-Small Cell Lung Cancer; for GI50: read-out: Log10 GI50 (converted)
Description: as §1

MDA-MB-231/ATCC = assay: NCI cell line panel; conditions: Homo sapiens, Breast Cancer, read-out: Log10 GI50 (converted)
Description: as §1

BT-549 = assay: NCI cell line panel; conditions: Homo sapiens
Description: as §1

HS 578T = assay: NCI cell line panel; conditions: Homo sapiens; for GI50: read-out: Log10 GI50 (converted)
Description: as §1

HOP-92 = assay: NCI cell line panel; conditions: Homo sapiens, Non-Small Cell Lung Cancer, read-out: Log10 GI50 (converted)
Description: as §1

K-562 = assay: NCI cell line panel; conditions: Homo sapiens, K562; Leukemia; read-out: Log10 GI50 (converted)
Description: as §1

OVCAR-8 = assay: NCI cell line panel; conditions: Homo sapiens, Ovarian Cancer, read-out: Log10 GI50 (converted)
Description: as §1

COLO 205 = assay: NCI cell line panel; conditions: Homo sapiens; for LC50 (50% lethal concentration): COLO 205, read-out: Log10 LC50 (converted); for IC (TGI): read-out: Log10 TGI (converted)
Description: as §1

RXF-393 = assay: NCI cell line panel; conditions: Homo sapiens, Renal Cancer; for GI50: read-out: Log10 GI50 (converted)
Description: as §1

786-0 = assay: NCI cell line panel; conditions: Homo sapiens, Renal Cancer; for GI50: read-out: Log10 GI50 (converted); for IC (TGI): read-out: Log10 TGI (converted)
Description: as §1

HOP-62 = assay: NCI cell line panel; conditions: Homo sapiens
Description: as §1

MCF7/ADR-RES = assay: NCI cell line panel; conditions: Homo sapiens, Breast Cancer; for GI50: read-out: Log10 GI50 (converted)
Description: as §1

A549/ATCC = assay: NCI cell line panel; conditions: Homo sapiens, Non-Small Cell Lung Cancer; for GI50: read-out: Log10 GI50 (converted); for IC (TGI): read-out: Log10 TGI (converted)
Description: as §1

NCI-H226 = assay: NCI cell line panel; conditions: Homo sapiens, Non-Small Cell Lung Cancer, read-out: Log10 GI50 (converted)
Description: as §1

U251 = assay: NCI cell line panel; conditions: Homo sapiens, U-251; CNS Cancer; read-out: Log10 GI50 (converted)
Description: as §1

HL-60(TB) = assay: NCI cell line panel; conditions: Homo sapiens, Leukemia, read-out: Log10 GI50 (converted)
Description: as §1

CCRF-CEM = assay: NCI cell line panel; conditions: Homo sapiens, Leukemia; for GI50: read-out: Log10 GI50 (converted)
Description: as §1

SN12C = assay: NCI cell line panel; conditions: Homo sapiens, Renal Cancer; for GI50: read-out: Log10 GI50 (converted)
Description: as §1

[1] = test system: 60 human tumor cell lines; assay: NCI in vitro primary screen, panel of 60 human tumor cell lines; conditions: for Compare Correlation Coefficient: TGI-centered mean graph profiles, spongistatin 1 as seed; for correlation of mean-graph fingerprint with microtubule-interactive antimitotics: pattern-recognition analyses, data not shown; for negative log molar TGI50: various human cancer cell lines
Description: as §1
^a All compounds were tested in quadruplicate at five different con-
entire panel of 60 human tumor cell lines comprising the NCI
^c Correlation coefficients from the Compare pattern-recognition
algorithm were calculated by computer using the TGI-centered
mean graph profiles of differential cellular sensitivities to 1, and
5. The TGI mean graph profile of 1 was used as the benchmark or
"seed" for all of the comparisons.

[2] = test system: P388 lymphocytic leukemia cell line; assay: P388 lymphocytic leukemia cell line bioassay; conditions: Mus musculus, pure compound
[3] = read-out: Log10 TGI (converted)
[4] = Homo sapiens, NCI 60 cell line panel, read-out: panel mean GI50
[5] = Homo sapiens, panel mean graph midpoint, read-out: MG-MID, Log10 GI50 (converted)
[6] = Homo sapiens, quadruplicate, five concentrations, standard errors averaged less than 15% of means, read-out: Mean Panel GI50
[7] = read-out: Log10 GI50 (converted)

C=C(Cl)/C=C/C(O)CC(=C)CC1OC2C(C)C(OC(=O)CC3CC(O)CC4(CC(C)(O)CC(C=C5COC(C(C)C(=O)CC6CC(OC)CC7(CC(O)CC(/C=C\CCCC8OC(O)(CC(O)C8C)C2O)O7)O6)C5C)O4)O3)C1O (stereo not drawn) [spongistatin 5]
GI50 (HCT-15): 0.0631 nM
GI50 (OVCAR-3): 0.0151 nM
IC (TGI) (LOX IMVI; [3]): 11 nM
GI50 (SK-OV-3; SK-OV-3, Ovarian Cancer, read-out: Log10 GI50 (converted)): 0.191 nM
GI50 (SF-539): 0.0229 nM
LC50 (50% lethal concentration) (A498; A498, read-out: Log10 LC50 (converted)): 87.1 nM
GI50 (A498): 0.0257 nM
IC (TGI) (MCF7): 39.8 nM
GI50 (NCI-H322M): 0.0891 nM
GI50 (MDA-MB-231/ATCC): 0.251 nM
GI50 (BT-549; BT-549, read-out: Log10 GI50 (converted)): 0.219 nM
GI50 (HS 578T; Breast Cancer): 0.437 nM
GI50 (HOP-92): 1.41 nM
GI50 (K-562): 0.1 nM
GI50 (OVCAR-8): 0.257 nM
LC50 (50% lethal concentration) (COLO 205): 7.94 nM
GI50 (COLO 205; COLO 205, Colon Cancer, read-out: Log10 GI50 (converted)): 0.0129 nM
IC (TGI) (COLO 205; COLO 205, Colon Cancer): 0.871 nM
GI50 (RXF-393): 0.0417 nM
GI50 (786-0): 0.0251 nM
IC (TGI) (786-0): 1.2 nM
GI50 (HOP-62; HOP-62, Non-Small Cell Lung Cancer, read-out: Log10 GI50 (converted)): 0.151 nM
GI50 (MCF7/ADR-RES): 0.912 nM
GI50 (A549/ATCC): 0.0209 nM
IC (TGI) (A549/ATCC): 75.9 nM
GI50 (NCI-H226): 0.759 nM
GI50 (U251): 0.0617 nM
GI50 (HL-60(TB)): 0.0129 nM
GI50 (CCRF-CEM): 0.017 nM
IC (TGI) (CCRF-CEM; [3]): 4.17 nM
GI50 (SN12C): 0.0603 nM
potency and specificity against NCI human cancer cell lines [1]: remarkably potent and specific
LC50 ([1]; Homo sapiens, read-out: MG-MID, Log10 LC50 (converted)): 79.4 nM
GI50 [1, 4]: 0.1 nM
GI50 [1, 5]: 0.0631 nM
IC (TGI) ([1]; Homo sapiens, panel mean graph midpoint, read-out: MG-MID, Log10 TGI (converted)): 13.8 nM
GI50 [1, 6]: 0.123 nM
Compare Correlation Coefficient [1]: 0.92
correlation of mean-graph fingerprint with microtubule-interactive antimitotics [1]: closely correlated
negative log molar TGI50 [1]: approximately ten
IC50 ([2]; PS (P388), read-out: ED50 (the source's name)): 0.066 ng/mL (≈ 0.058 nM)

C=C/C=C/C(O)CC(=C)CC1OC2C(C)C(OC(=O)CC3CC(O)CC4(CC(C)(O)CC(C=C5COC(C(C)C(=O)CC6CC(OC)CC7(CC(O)CC(/C=C\CCCC8OC(O)(CC(O)C8C)C2O)O7)O6)C5C)O4)O3)C1O (stereo not drawn) [spongistatin 7]
GI50 (HCT-15): 6.17 nM
GI50 (OVCAR-3): 0.0759 nM
GI50 (LOX IMVI; [7]): 0.468 nM
GI50 (SK-OV-3; SK-OV-3, read-out: Log10 GI50 (converted)): 1 nM
GI50 (SF-539): 0.49 nM
GI50 (A498): 2.69 nM
GI50 (MCF7; [7]): 0.17 nM
IC (TGI) (MCF7): 100 nM
GI50 (NCI-H322M): 3.24 nM
IC (TGI) (NCI-H322M; [3]): 100 nM
GI50 (MDA-MB-231/ATCC): 1.58 nM
IC (TGI) (BT-549; BT-549, Breast Cancer, read-out: Log10 TGI (converted)): 100 nM
IC (TGI) (HS 578T; Breast Cancer, read-out: Log10 TGI (converted)): 100 nM
GI50 (HS 578T): 1.29 nM
GI50 (HOP-92): 5.25 nM
GI50 (K-562): 0.151 nM
GI50 (OVCAR-8): 3.98 nM
GI50 (COLO 205; COLO 205, read-out: Log10 GI50 (converted)): 0.331 nM
LC50 (50% lethal concentration) (COLO 205): 75.9 nM
IC (TGI) (COLO 205; COLO 205, Colon Cancer): 3.8 nM
GI50 (RXF-393): 2.69 nM
IC (TGI) (RXF-393; [3]): 100 nM
GI50 (786-0): 2 nM
IC (TGI) (786-0): 100 nM
GI50 (HOP-62; HOP-62, read-out: Log10 GI50 (converted)): 1 nM
GI50 (MCF7/ADR-RES): 77.6 nM
IC (TGI) (MCF7/ADR-RES; [3]): 100 nM
GI50 (A549/ATCC): 3.47 nM
IC (TGI) (A549/ATCC): 100 nM
GI50 (NCI-H226): 2 nM
GI50 (U251): 0.759 nM
GI50 (HL-60(TB)): 0.0794 nM
GI50 (CCRF-CEM): 0.24 nM
GI50 (SN12C): 2.19 nM
IC (TGI) (SN12C; [3]): 100 nM
potency and specificity against NCI human cancer cell lines [1]: remarkably potent and specific
GI50 [1, 4]: 0.1 nM
GI50 [1, 5]: 1.17 nM
GI50 [1, 6]: 1.01 nM
Compare Correlation Coefficient [1]: 0.81
correlation of mean-graph fingerprint with microtubule-interactive antimitotics [1]: closely correlated
negative log molar TGI50 [1]: approximately ten
IC50 ([2]; P388, unit inferred, read-out: P388 ED50): 2.6 ng/mL (≈ 2.36 nM)
